Values joined by “and” are separate entries in the source; they are usually repeats but may differ in a detail not shown here. Identical values can stand only once.
Assay: Phase I dose-escalation trial, dose limiting toxicities of Coenzyme Q10 monotherapy (Arm 1)
Assay type: in vivo, human
From the text: The clinical trial is a multicenter, open-label, non-randomized, dose-escalation study to examine the dose limiting toxicities (DLT) of Coenzyme Q10 administered as a 144-hour continuous intravenous (IV) infusion as monotherapy (treatment Arm 1) and in combination with chemotherapy (treatment Arm 2) in patients with solid tumors. A broad range of solid tumors has been evaluated, including prostate, colon, breast, lung and pancreatic tumors, as shown in Tables 1 and 2 below. Coenzyme Q10 was administered in three consecutive 48 hour doses or two consecutive 72 hour doses, depending on the dose level. Three standard weekly chemotherapy regimens of gemcitabine, 5-fluorouracil, or docetaxel were evaluated in combination with Coenzyme Q10. Eligible patients are 18 years of age or older, afflicted with solid tumors, and relapsed/refractory to standard therapy. 85 patients have been enrolled in the trial. The monotherapy arm received Coenzyme Q10 for 6 days in continuous infusion in 28 day cycles, and the combination arms (gemcitabine, 5-fluorouracil, or docetaxel) were primed for 3 weeks with Coenzyme Q10 before initiation of standard chemotherapy, followed by weekly dosing in a 6 week cycle.
The study is a standard 3+3 dose escalation design with the dose escalated in successive cohorts of 3 to 6 patients each. Toxicity at each dose level is graded according to National Cancer Institute Common Terminology Criteria for Adverse Events (CTCAE v4.02). Safety oversight is provided by the Cohort Review Committee (CRC). If none of the 3 patients in a cohort experiences a DLT during Cycle 1, then 3 new patients may be entered at the next higher dose level following CRC review of safety and PK data from lower cohorts. The clinical trial is described in greater detail in WO2015/035094, which is incorporated by reference herein in its entirety.
DLTs were reported at 171 mg/kg in the Coenzyme Q10 monotherapy arm and at 137 mg/kg in the gemcitabine arm (maximum administered dose) and were coagulopathy-related. 3 DLTs were reported during the time period covered by Example 1. […] The event resolved in 2 days after administration of Vitamin K and fresh frozen plasma (FFP). Three additional patients were enrolled at this dose level with no additional DLTs reported. […] According to trial design, patients were being enrolled into the next lowest dose level (110 mg/kg).
Table 4. Dose limiting toxicities for Coenzyme Q10 monotherapy. The number of patients enrolled at each dose level (DL) is shown in parentheses. DL4 and DL5 were administered in two consecutive 72 hour IV infusions. All other dose levels were administered by three consecutive 48 hour IV infusions.

For COC1=C(OC)C(=O)C(C/C=C(\C)CC/C=C(\C)CC/C=C(\C)CC/C=C(\C)CC/C=C(\C)CC/C=C(\C)CC/C=C(\C)CC/C=C(\C)CC/C=C(\C)CCC=C(C)C)=C(C)C1=O [Coenzyme Q10], the “Time to resolution of DLT event (grade 3 PTT abnormality)” value (Mono Dose Level 5 (171 mg/kg), after administration of Vitamin K and fresh frozen plasma) was 2 days, the “Dose Limiting Toxicity” value (monotherapy DL1 - 66 mg/kg (9 enrolled), three consecutive 48 hour IV infusions, cell wraps r7-r9: Grade 3 Elevated Liver Function Test*, *readjudicated to unlikely related to protocol therapy) was “Grade 3 Elevated” and the “Dose Limiting Toxicity” value (monotherapy DL2 - 88 mg/kg (4 enrolled), three consecutive 48 hour IV infusions) was “None”. For the same molecule, the “Dose Limiting Toxicity” value (monotherapy DL3 - 110 mg/kg (5 enrolled), three consecutive 48 hour IV infusions) was “None”, the “Dose Limiting Toxicity” value (monotherapy DL4 - 137 mg/kg (4 enrolled), two consecutive 72 hour IV infusions) was “None” and the “Dose Limiting Toxicity” value (monotherapy DL5 - 171 mg/kg (8 enrolled), two consecutive 72 hour IV infusions, cell wraps r20-r21: 1 DLT: Grade 3 PTT elevation) was “grade 3 partial thromboplastin time (PTT) abnormality and 1 DLT: Grade 3”. For the same molecule, the “Number of DLTs reported” value (whole trial (mono and combination arms), time period covered by Example 1) was 3.
